From US20260174766A1, “COMBINATION OF MENIN INHIBITOR(S) AND IMMUNOPROTEASOME INHIBITOR(S) FOR TREATMENT OF LEUKEMIA” (Medizinische Hochschule Hannover, priority 2022, published 2026)

System: MLL-AF9 driven leukemia
Test: Secondary transplantation of bone marrow from in vivo treated MLL-AF9 mice
Parameters: species or system mouse
Settings: p<0.0001
Procedure: For induction of MLL-AF9 (MA9) driven leukemia we used established retroviral MSCV-GFP-based vectors to express MA9 in hematopoietic stem- and progenitor cells (Lineage-negative, Sca1-positive, Kit-positive [LSK] cells). In detail, bone marrow (BM) of LMP7+/+ or LMP7−/− littermates was isolated following standard procedures from 6-12-weeks-old mice. Lineage-depletion was performed using Streptavidin Particles Plus-DM (BD Biosciences, Heidelberg, Germany) and a DynaMag magnet (Thermo Fisher Scientific). Lineage-depleted cells were stained with streptavidin BV421, KIT AF647 and Sca-1 FITC or PE antibodies (all antibodies were received from Biolegend, San Diego, CA, USA) and then used for cell sorting. […] Cells were analyzed 48 hours after first infection for GFP-expression using flow cytometry and 7.5×10^4 GFP+ cells were injected into sublethally irradiated (7 Gy, single dose) primary recipient mice (C57BL/6J; females). […]
To characterize the effects of LMP7/PSMB8 inhibition in more detail, differentiation following PR-957 treatment was assessed. […] Next, the frequency of L-GMP (Lin− c-kit+ Sca1− CD34+ FcgR+) was assessed by flow cytometry, which have been described as the functionally relevant LSC population in MLL-AF9 driven leukemia. […]

SMILES: COc1ccc(C[C@H](NC(=O)[C@H](C)NC(=O)CN2CCOCC2)C(=O)N[C@@H](Cc2ccccc2)C(=O)[C@]2(C)CO2)cc1 [PR-957, (2S)-3-(4-methoxyphenyl)-N-[(2S)-1-[(2S)-2-methyloxiran-2-yl]-1-oxo-3-phenylpropan-2-yl]-2-[[(2S)-2-[(2-morpholin-4-ylacetyl)amino]propanoyl]amino]propanamide]
- median survival of secondary recipients (recipients of PR-957 treated cells, control 21 days, FIG. 2G): 39.5 days
- leukemic cells in the peripheral blood (GFP+ WBC) of secondary recipients (two weeks after transplantation of bone marrow of treated mice, FIG. 2F): 1.6 Gpt/L
